Results as given in PubChem BioAssay AID1745844 (Carcinogenic Potency Database (CPDB), 2022).
Calls of active or inactive are those of the source. No rule for the calls is given here.

System: rodent lifetime carcinogenesis bioassay, tumor incidence TD50
Assay: chronic cancer bioassays in animals – CPDB, compiled studies (AID 1745844)

`ClC#CCl` showed a TD50 (mouse, strain NMRI, females, inhaled, site: Harderian gland, lesion: cystadenoma, dosed 52 weeks, study length 98 weeks) of 3.02 mg/kg/day, a TD50 (mouse, strain NMRI, females, inhaled, site: Harderian gland, lesion: cystadenoma, dosed 78 weeks, study length 119 weeks) of 0.55 mg/kg/day and a TD50 (mouse, strain NMRI, females, inhaled, site: Harderian gland, lesion: cystadenoma, dosed 78 weeks, study length 129 weeks) of 0.499 mg/kg/day. For the same compound, the TD50 (mouse, strain NMRI, females, inhaled, site: kidney, lesion: cystadenoma, dosed 52 weeks, study length 98 weeks) was 1.03 mg/kg/day, the TD50 (mouse, strain NMRI, females, inhaled, site: kidney, lesion: cystadenoma, dosed 78 weeks, study length 119 weeks) was 1.08 mg/kg/day and the TD50 (mouse, strain NMRI, females, inhaled, site: kidney, lesion: cystadenoma, dosed 78 weeks, study length 129 weeks) was 7.8 mg/kg/day. The TD50 (mouse, strain NMRI, females, inhaled, site: lung, lesion: adenoma, dosed 78 weeks, study length 119 weeks) was 2.73 mg/kg/day, the carcinogen call (mouse, strain NMRI, males, inhaled, site: Harderian gland, lesion: cystadenoma, dosed 52 weeks, study length 92 weeks) was “positive” and the TD50 (mouse, strain NMRI, males, inhaled, site: Harderian gland, lesion: cystadenoma, dosed 78 weeks, study length 118 weeks) was 0.687 mg/kg/day. For the same compound, the TD50 (mouse, strain NMRI, males, inhaled, site: Harderian gland, lesion: cystadenoma, dosed 78 weeks, study length 127 weeks) was 1.01 mg/kg/day, the TD50 (mouse, strain NMRI, males, inhaled, site: kidney, lesion: cystadenocarcinoma, dosed 52 weeks, study length 92 weeks) was 3.89 mg/kg/day and the TD50 (mouse, strain NMRI, males, inhaled, site: kidney, lesion: cystadenocarcinoma, dosed 78 weeks, study length 118 weeks) was 4.52 mg/kg/day. For the same compound, the TD50 (mouse, strain NMRI, males, inhaled, site: kidney, lesion: cystadenocarcinoma, dosed 78 weeks, study length 127 weeks) was 0.501 mg/kg/day, the TD50 (mouse, strain NMRI, males, inhaled, site: kidney, lesion: cystadenoma, dosed 52 weeks, study length 92 weeks) was 0.486 mg/kg/day and the TD50 (mouse, strain NMRI, males, inhaled, site: kidney, lesion: cystadenoma, dosed 78 weeks, study length 118 weeks) was 0.769 mg/kg/day. It also gave a TD50 (mouse, strain NMRI, males, inhaled, site: kidney, lesion: cystadenoma, dosed 78 weeks, study length 127 weeks) of 0.466 mg/kg/day, a TD50 (rat, strain Wistar, females, inhaled, site: all sites, lesion: malignant lymphoma, dosed 78 weeks, study length 150 weeks) of 3.86 mg/kg/day and a TD50 (rat, strain Wistar, females, inhaled, site: kidney, lesion: cystadenoma, dosed 78 weeks, study length 150 weeks) of 11.5 mg/kg/day. For the same compound, the TD50 (rat, strain Wistar, females, inhaled, site: liver, lesion: cholangioma, dosed 78 weeks, study length 150 weeks) was 3.86 mg/kg/day, the TD50 (rat, strain Wistar, females, inhaled, site: liver, lesion: hepatocellular adenoma, dosed 78 weeks, study length 150 weeks) was 17.5 mg/kg/day and the TD50 (rat, strain Wistar, males, inhaled, site: kidney, lesion: cystadenocarcinoma, dosed 78 weeks, study length 157 weeks) was 26.2 mg/kg/day. For the same compound, the TD50 (rat, strain Wistar, males, inhaled, site: kidney, lesion: cystadenoma, dosed 78 weeks, study length 157 weeks) was 3.34 mg/kg/day, the TD50 (rat, strain Wistar, males, inhaled, site: liver, lesion: cholangioma, dosed 78 weeks, study length 157 weeks) was 3.97 mg/kg/day and the TD50 (rat, strain Wistar, males, inhaled, site: liver, lesion: hepatocellular adenoma, dosed 78 weeks, study length 157 weeks) was 12.9 mg/kg/day.

`COc1cc(/C=C/C(=O)OCCc2ccccc2)ccc1O` was tested, and the carcinogen call (rat, strain Fischer 344, males, in feed, site: colon, lesion: one or several types, types not named, dosed 55 weeks, study length 55 weeks) was “negative (inactive)”.

For `COC(=O)C1=C(C)NC(C)=C(C(=O)OCCc2ccc(N3CCN(C(c4ccccc4)c4ccccc4)CC3)cc2)C1c1cccc([N+](=O)[O-])c1` (stereo not drawn), the TD50 (mouse, strain B6C3F1, females, in feed, site: any site (literature study), lesion: several types, types named in the paper, dosed 78 weeks, study length 78 weeks) was 293 mg/kg/day (inactive), the TD50 (mouse, strain B6C3F1, females, in feed, site: liver, lesion: hepatocellular adenoma, dosed 78 weeks, study length 78 weeks) was 714 mg/kg/day (inactive) and the carcinogen call (mouse, strain B6C3F1, females, in feed, site: lung, lesion: adenocarcinoma, dosed 78 weeks, study length 78 weeks) was “negative (inactive)”. The TD50 (mouse, strain B6C3F1, females, in feed, site: lung, lesion: alveolar/bronchiolar adenoma, dosed 78 weeks, study length 78 weeks) was 243 mg/kg/day (inactive), the carcinogen call (mouse, strain B6C3F1, males, in feed, site: any site (literature study), lesion: several types, types named in the paper, dosed 78 weeks, study length 78 weeks) was “negative (inactive)” and the carcinogen call (mouse, strain B6C3F1, males, in feed, site: liver, lesion: hepatocellular adenoma, dosed 78 weeks, study length 78 weeks) was “negative (inactive)”. For the same compound, the TD50 (mouse, strain B6C3F1, males, in feed, site: liver, lesion: hepatocellular carcinoma, dosed 78 weeks, study length 78 weeks) was 898 mg/kg/day (inactive), the carcinogen call (mouse, strain B6C3F1, males, in feed, site: lung, lesion: adenocarcinoma, dosed 78 weeks, study length 78 weeks) was “negative (inactive)” and the carcinogen call (mouse, strain B6C3F1, males, in feed, site: lung, lesion: alveolar/bronchiolar adenoma, dosed 78 weeks, study length 78 weeks) was “negative (inactive)”. The TD50 (rat, strain F344/DuCrj, females, in feed, site: any site (literature study), lesion: several types, types named in the paper, dosed 104 weeks, study length 104 weeks) was 46.1 mg/kg/day (inactive), the TD50 (rat, strain F344/DuCrj, females, in feed, site: liver, lesion: hepatocellular adenoma, dosed 104 weeks, study length 104 weeks) was 509 mg/kg/day (inactive) and the carcinogen call (rat, strain F344/DuCrj, males, in feed, site: any site (literature study), lesion: several types, types named in the paper, dosed 104 weeks, study length 104 weeks) was “negative (inactive)”. For the same compound, the carcinogen call (rat, strain F344/DuCrj, males, in feed, site: liver, lesion: hepatocellular adenoma, dosed 104 weeks, study length 104 weeks) was “negative (inactive)”.
